Results reported in ChEMBL document CHEMBL1201862, “PubChem BioAssay data set” (2004).
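Assay format: 96-well plates, 48-hour exposure. At the GI50, growth is halved.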 Active and inactive are the calls of the source. Rule as the data show it: active = GI50 up to about 1.1 µM and inactive = higher.

What was measured:
Assay in all cases: NCI tumour cell line growth inhibition, 48 h
[1] = test system: A498
[2] = test system: COLO 205
[3] = test system: DU-145
[4] = test system: HCT-15
[5] = test system: HT-29
[6] = test system: Hs-578T
[7] = test system: K562
[8] = test system: KM12
[9] = test system: MCF7
[10] = test system: MDA-MB-231
[11] = test system: NCI-H226
[12] = test system: OVCAR-5
[13] = test system: PC-3
[14] = test system: RXF 393
[15] = test system: SK-MEL-28
[16] = test system: SNB-19
[17] = test system: SR
[18] = test system: SW-620
[19] = test system: TK-10
[20] = test system: UO-31

Compound	GI50 [1]	GI50 [2]	GI50 [3]	GI50 [4] [µM]	GI50 [5]	GI50 [6]	GI50 [7]	GI50 [8]	GI50 [9]	GI50 [10]	GI50 [11]	GI50 [12]	GI50 [13]	GI50 [14]	GI50 [15]	GI50 [16]	GI50 [17]	GI50 [18]	GI50 [19]	GI50 [20]
Cc1cc2c(cc1C)[n+]([O-])c(C(=O)/C=C/c1ccccc1[N+](=O)[O-])c(C)[n+]2[O-]	61.2 µM (inactive)	99.3 µM (inactive)	> 100 µM (inactive)	73.8	> 92.3 µM (inactive)	39.3 µM (inactive)	> 100 µM (inactive)	> 100 µM (inactive)	> 46.5 µM (inactive)	> 65.5 µM (inactive)	67.5 µM (inactive)	> 100 µM (inactive)	> 100 µM (inactive)	37.4 µM (inactive)	71.4 µM (inactive)	30.3 µM (inactive)	55.6 µM (inactive)	> 100 µM (inactive)	49.9 µM (inactive)	99.5 µM (inactive)
COc1cccc2c1C(=O)c1c(O)c3c(c(O)c1C2=O)C[C@@](O)(C(=O)CO)C[C@@H]3OC1CC2C(OCN3CN2COC2C(C)OC(O[C@H]4C[C@](O)(C(=O)CO)Cc5c(O)c6c(c(O)c54)C(=O)c4c(OC)cccc4C6=O)CC23)C(C)O1 (stereo partly drawn)	0.0559 µM (active)	0.0614 µM (active)	0.0265 µM (active)	0.161	0.0428 µM (active)	0.0559 µM (active)	0.0684 µM (active)	0.0635 µM (active)	0.0179 µM (active)	0.0741 µM (active)	0.0665 µM (active)	0.131 µM (active)	0.0929 µM (active)	0.0106 µM (active)	0.157 µM (active)	0.0272 µM (active)	0.00119 µM (active)	0.0187 µM (active)	0.0412 µM (active)	0.139 µM (active)
CC(C)(C)C1CC[C@H](O)[C@H]([C@@H](O)CC2CC(=O)N(c3ccccc3)C(=O)C2)C1 (stereo partly drawn)	> 100 µM (inactive)	–	55.3 µM (inactive)	56.4	23.1 µM (inactive)	> 100 µM (inactive)	54.1 µM (inactive)	47.5 µM (inactive)	44.2 µM (inactive)	67.3 µM (inactive)	> 100 µM (inactive)	> 100 µM (inactive)	91.8 µM (inactive)	64 µM (inactive)	> 100 µM (inactive)	> 100 µM (inactive)	40.9 µM (inactive)	> 100 µM (inactive)	> 100 µM (inactive)	76.4 µM (inactive)
CCc1[nH]nc(C(N)=O)c1/N=N/N(C)C	> 100 µM (inactive)	98.9 µM (inactive)	46.2 µM (inactive)	68.4	> 100 µM (inactive)	67.9 µM (inactive)	1.13 µM (inactive)	56.5 µM (inactive)	30.9 µM (inactive)	> 100 µM (inactive)	84.1 µM (inactive)	–	> 100 µM (inactive)	> 100 µM (inactive)	> 100 µM (inactive)	> 100 µM (inactive)	10.1 µM (inactive)	> 100 µM (inactive)	> 100 µM (inactive)	2.58 µM (inactive)
